Source: US6358885B1, “Substituted phenylheterocyclic herbicides” (Mississippi State University, priority 1992, dated 2002)

Tests used:
[1] = test system: rape; test: Test B preemergence/postemergence greenhouse plant response rating 0 to 10; type: in vivo, Brassica napus; details: 0 to 10 scale
Method in brief: (§1)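 Test chemicals were sprayed onto freshly planted seed and, concurrently, onto young plants between the one and four leaf stage. After a twelve- to sixteen-day greenhouse period, each species was visually compared with untreated controls.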

[2] = test system: wheat; test: as above; type: in vivo, Triticum aestivum; details: 0 to 10 scale
Method in brief: as §1

[3] = test system: crabgrass; test: as above; type: in vivo, Digitaria spp.; details: 0 to 10 scale
Method in brief: as §1

[4] = test system: chickweed; test: Test C preemergence/postemergence greenhouse plant response rating 0 to 100; type: in vivo, Stellaria media; details: POSTEMERGENCE
Excerpt: (§2) The compounds evaluated in this test were formulated in a non-phytoxic solvent and applied to the soil surface before plant seedlings emerged (preemergence application), to water that covered the soil surface (flood application), and to plants that were in the one-to-four leaf stage (postemergence application). A sandy loam soil was used for the preemergence and postemergence tests, while a silt loam soil was used in the flood test. Water depth was approximately 2.5 cm for the flood test and was maintained at this level for the duration of the test. Plant species in the preemergence and postemergence tests consisted of barley (Hordeum vulgare), bedstraw (Galium aparine), blackgrass (Alopecurus myosuroides), chickweed (Stellaria media), corn (Zea mays), cotton (Gossypium hirsutum), crabgrass (Digitaria sanguinalis), downy brome (Bromus tectorum), giant foxtail (Setaria faberii), lambsquarters (Chenopodium album), morningglory (Ipomoea hederacea), pigweed ([…]), rape (Brassica napus), ryegrass (Lolium multiflorum), sorghum (Sorghum bicolor), soybean (Glycine max), speedwell (Veronica persica), sugar beet (Beta vulgaris), velvetleaf (Abutilon theophrasti), wheat (Triticum aestivum), wild buckwheat (Polygonum convolvulus), and wild oat (Avena fatua). All plant species were planted one day before application of the compound for the preemergence portion-of this test. Plantings of these species were adjusted to produce plants of appropriate size for the post-emergence portion of the test. […] All plant species were grown using normal greenhouse practices. Visual evaluations of injury expressed on treated plants, when compared to untreated controls, were recorded approximately fourteen to twenty one days after application of the test compound. […] A dash (-) response means no test result.

[5] = test system: barley; test: as above; type: in vivo, Hordeum vulgare; details: POSTEMERGENCE
Excerpt: as §2

[6] = test system: wild buckwheat; test: as above; type: in vivo, Polygonum convolvulus; details: POSTEMERGENCE
Excerpt: as §2

[7] = test system: sorghum; test: Test B preemergence/postemergence greenhouse plant response rating 0 to 10; type: in vivo, Sorghum bicolor; details: 0 to 10 scale
Method in brief: as §1

[8] = test system: bedstraw; test: Test C preemergence/postemergence greenhouse plant response rating 0 to 100; type: in vivo, Galium aparine; details: POSTEMERGENCE
Excerpt: as §2

[9] = test system: morningglory; test: Test B preemergence/postemergence greenhouse plant response rating 0 to 10; type: in vivo, Ipomoea hederacea; details: 0 to 10 scale
Method in brief: as §1

[10] = test system: soybean; test: Test C preemergence/postemergence greenhouse plant response rating 0 to 100; type: in vivo, Glycine max; details: POSTEMERGENCE
Excerpt: as §2

[11] = test system: wild oat; test: Test B preemergence/postemergence greenhouse plant response rating 0 to 10; type: in vivo, Avena fatua; details: 0 to 10 scale
Method in brief: as §1

[12] = test system: purple nutsedge; test: as above; type: in vivo, Cyperus rotundus; details: 0 to 10 scale
Method in brief: as §1

[13] = test system: downy brome; test: Test C preemergence/postemergence greenhouse plant response rating 0 to 100; type: in vivo, Bromus tectorum; details: POSTEMERGENCE
Excerpt: as §2

[14] = test system: soybean; test: Test B preemergence/postemergence greenhouse plant response rating 0 to 10; type: in vivo, Glycine max; details: 0 to 10 scale
Method in brief: as §1

[15] = test system: morningglory; test: Test C preemergence/postemergence greenhouse plant response rating 0 to 100; type: in vivo, Ipomoea hederacea; details: POSTEMERGENCE
Excerpt: as §2

[16] = test system: corn; test: Test B preemergence/postemergence greenhouse plant response rating 0 to 10; type: in vivo, Zea mays; details: Rate 50 g/ha, 0 to 10 scale
Method in brief: as §1

[17] = test system: chickweed; test: as above; type: in vivo, Stellaria media; details: 0 to 10 scale
Method in brief: as §1

Structure (SMILES): C#CCN1C(=O)COc2cc(F)c(-c3nn4c(c3Br)CCCC4)cc21 [Compound 56]
- Plant response rating, Rape ([1]; POSTEMERGENCE, Rate 10 g/ha): 10
- Plant response rating, Rape ([1]; POSTEMERGENCE, Rate 50 g/ha): 10
- Plant response rating, Rape ([1]; PREEMERGENCE, Rate 50 g/ha): 3
- Plant response rating, Wheat ([2]; POSTEMERGENCE, Rate 10 g/ha): 7
- Plant response rating, Wheat ([2]; POSTEMERGENCE, Rate 50 g/ha): 7
- Plant response rating, Wheat ([2]; PREEMERGENCE, Rate 50 g/ha): 4
- Plant response rating, Crabgrass ([3]; POSTEMERGENCE, Rate 10 g/ha): 4
- Plant response rating, Crabgrass ([3]; POSTEMERGENCE, Rate 50 g/ha): 6
- Plant response rating, Crabgrass ([3]; PREEMERGENCE, Rate 10 g/ha): 0
- Plant response rating, Crabgrass ([3]; PREEMERGENCE, Rate 50 g/ha): 3
- Plant response rating, Chickweed ([4]; 62 g/ha, 0 to 100 scale): 100
- Plant response rating (0 to 100), Chickweed ([4]; Rate 1 g/ha): 65
- Plant response rating (0 to 100), Chickweed ([4]; Rate 4 g/ha): 80
- Plant response rating (0 to 100), Chickweed ([4]; Rate 16 g/ha): 100
- Plant response rating Barley Igri ([5]; 62 g/ha, 0 to 100 scale): 50
- Plant response rating (0 to 100), Barley Igri ([5]; Rate 1 g/ha): 30
- Plant response rating (0 to 100), Barley Igri ([5]; Rate 4 g/ha): 30
- Plant response rating (0 to 100), Barley Igri ([5]; Rate 16 g/ha): 50
- Plant response rating, Wild buckwheat ([6]; 62 g/ha, 0 to 100 scale): 100
- Plant response rating (0 to 100), Wild buckwheat ([6]; Rate 1 g/ha): 100
- Plant response rating (0 to 100), Wild buckwheat ([6]; Rate 4 g/ha): 100
- Plant response rating (0 to 100), Wild buckwheat ([6]; Rate 16 g/ha): 100
- Plant response rating, Sorghum ([7]; POSTEMERGENCE, Rate 10 g/ha): 3
- Plant response rating, Sorghum ([7]; POSTEMERGENCE, Rate 50 g/ha): 2
- Plant response rating, Sorghum ([7]; PREEMERGENCE, Rate 50 g/ha): 0
- Plant response rating, Bedstraw ([8]; 62 g/ha, 0 to 100 scale): 100
- Plant response rating (0 to 100), Bedstraw ([8]; Rate 1 g/ha): 70
- Plant response rating (0 to 100), Bedstraw ([8]; Rate 4 g/ha): 80
- Plant response rating (0 to 100), Bedstraw ([8]; Rate 16 g/ha): 95
- Plant response rating, Morningglory ([9]; POSTEMERGENCE, Rate 10 g/ha): 10
- Plant response rating, Morningglory ([9]; POSTEMERGENCE, Rate 50 g/ha): 9
- Plant response rating, Morningglory ([9]; PREEMERGENCE, Rate 50 g/ha): 6
- Plant response rating, Soybean ([10]; 62 g/ha, 0 to 100 scale): 95
- Plant response rating (0 to 100), Soybean ([10]; Rate 1 g/ha): 40
- Plant response rating (0 to 100), Soybean ([10]; Rate 4 g/ha): 60
- Plant response rating (0 to 100), Soybean ([10]; Rate 16 g/ha): 90
- Plant response rating, Wild oat ([11]; POSTEMERGENCE, Rate 10 g/ha): 6
- Plant response rating, Wild oat ([11]; POSTEMERGENCE, Rate 50 g/ha): 6
- Plant response rating, Wild oat ([11]; PREEMERGENCE, Rate 50 g/ha): 5
- Plant response rating, Nutsedge ([12]; POSTEMERGENCE, Rate 10 g/ha): 4
- Plant response rating, Nutsedge ([12]; POSTEMERGENCE, Rate 50 g/ha): 7
- Plant response rating, Nutsedge ([12]; PREEMERGENCE, Rate 50 g/ha): 4
- Plant response rating Downy Brome ([13]; 62 g/ha, 0 to 100 scale): 70
- Plant response rating (0 to 100), Downy Brome ([13]; Rate 1 g/ha): 40
- Plant response rating (0 to 100), Downy Brome ([13]; Rate 4 g/ha): 50
- Plant response rating (0 to 100), Downy Brome ([13]; Rate 16 g/ha): 60
- Plant response rating, Soybean ([14]; POSTEMERGENCE, Rate 10 g/ha): 9
- Plant response rating, Soybean ([14]; POSTEMERGENCE, Rate 50 g/ha): 8
- Plant response rating, Soybean ([14]; PREEMERGENCE, Rate 50 g/ha): 0
- Plant response rating, Morningglory ([15]; 62 g/ha, 0 to 100 scale): 100
- Plant response rating (0 to 100), Morningglory ([15]; Rate 1 g/ha): 50
- Plant response rating (0 to 100), Morningglory ([15]; Rate 4 g/ha): 100
- Plant response rating (0 to 100), Morningglory ([15]; Rate 16 g/ha): 100
- Plant response rating, Corn ([16]; POSTEMERGENCE): 3
- Plant response rating, Corn ([16]; PREEMERGENCE): 0
- Plant response rating, Chickweed ([17]; POSTEMERGENCE, Rate 10 g/ha): 9
- Plant response rating, Chickweed ([17]; POSTEMERGENCE, Rate 50 g/ha): 10
- Plant response rating, Chickweed ([17]; PREEMERGENCE, Rate 10 g/ha): 9
- Plant response rating, Chickweed ([17]; PREEMERGENCE, Rate 50 g/ha): 10
